In ChEMBL document CHEMBL4800725 (2021):
Active and inactive are the calls of the source. The calls are words filed in the database; no cut-off is given here.

Assays:
Pantetheinase [1] = target: T1, Pantetheinase (Homo sapiens, UniProt O95497); assay: Human recombinant vanin-1 assay
T1 sequence (O95497 whole entry): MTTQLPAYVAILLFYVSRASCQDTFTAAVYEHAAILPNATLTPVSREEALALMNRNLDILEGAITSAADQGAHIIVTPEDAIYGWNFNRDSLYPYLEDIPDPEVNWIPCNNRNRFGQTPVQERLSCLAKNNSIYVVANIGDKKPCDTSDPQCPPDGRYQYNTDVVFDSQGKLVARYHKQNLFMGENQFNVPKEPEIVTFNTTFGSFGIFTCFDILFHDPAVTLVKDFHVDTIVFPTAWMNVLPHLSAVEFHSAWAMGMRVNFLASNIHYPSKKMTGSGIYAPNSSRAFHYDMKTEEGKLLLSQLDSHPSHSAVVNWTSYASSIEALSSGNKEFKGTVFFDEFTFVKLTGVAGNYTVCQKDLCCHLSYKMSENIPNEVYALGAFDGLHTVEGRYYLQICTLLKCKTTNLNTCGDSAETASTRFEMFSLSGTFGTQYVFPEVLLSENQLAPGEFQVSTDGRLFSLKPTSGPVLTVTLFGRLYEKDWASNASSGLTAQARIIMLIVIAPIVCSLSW

Pantetheinase [2] = target: T2, Pantetheinase (Mus musculus, UniProt Q9Z0K8); assay: Mouse recombinant vanin-1 assay
T2 sequence (Q9Z0K8 whole entry): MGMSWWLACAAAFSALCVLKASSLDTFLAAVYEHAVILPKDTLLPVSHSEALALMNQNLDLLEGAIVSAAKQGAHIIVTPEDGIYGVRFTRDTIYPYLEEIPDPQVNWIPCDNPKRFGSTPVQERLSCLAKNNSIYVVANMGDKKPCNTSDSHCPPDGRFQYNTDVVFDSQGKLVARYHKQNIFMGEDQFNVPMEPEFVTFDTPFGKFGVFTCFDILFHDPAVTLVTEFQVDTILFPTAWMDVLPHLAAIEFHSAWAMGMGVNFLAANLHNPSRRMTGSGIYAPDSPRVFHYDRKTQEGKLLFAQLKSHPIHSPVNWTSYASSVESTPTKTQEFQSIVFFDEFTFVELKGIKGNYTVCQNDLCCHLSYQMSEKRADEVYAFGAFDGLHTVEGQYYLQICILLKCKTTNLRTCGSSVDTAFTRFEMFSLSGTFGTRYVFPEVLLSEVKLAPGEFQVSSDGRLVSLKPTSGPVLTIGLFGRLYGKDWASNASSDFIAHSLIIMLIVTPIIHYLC

Pantetheinase [3] = target: T1, Pantetheinase; assay: Human plasma vanin-1 assay
Pantetheinase [4] = target: T2, Pantetheinase; assay: Mouse plasma vanin-1 assay
Vanin 1 = target: T3, Vanin 1 (Rattus norvegicus, UniProt Q4KLZ0)
T3 sequence (Q4KLZ0 whole entry): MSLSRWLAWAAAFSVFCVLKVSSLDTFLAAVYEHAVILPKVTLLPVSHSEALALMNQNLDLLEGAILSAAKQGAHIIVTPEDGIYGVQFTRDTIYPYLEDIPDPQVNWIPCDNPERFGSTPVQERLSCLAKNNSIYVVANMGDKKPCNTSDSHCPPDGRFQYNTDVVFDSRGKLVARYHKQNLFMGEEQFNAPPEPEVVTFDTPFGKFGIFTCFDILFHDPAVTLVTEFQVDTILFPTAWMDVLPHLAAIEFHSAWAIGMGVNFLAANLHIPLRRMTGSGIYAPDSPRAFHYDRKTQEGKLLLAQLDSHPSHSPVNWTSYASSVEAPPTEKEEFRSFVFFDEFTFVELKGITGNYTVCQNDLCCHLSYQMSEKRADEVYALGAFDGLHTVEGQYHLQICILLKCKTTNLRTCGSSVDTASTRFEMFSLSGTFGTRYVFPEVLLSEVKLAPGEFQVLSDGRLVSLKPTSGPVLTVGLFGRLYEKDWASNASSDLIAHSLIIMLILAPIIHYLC

Row | IC50 (Pantetheinase [1]) | IC50 (Pantetheinase [3]) | SMILES | IC50 (Pantetheinase [2]) | IC50 (Pantetheinase [4]) | IC50 (Vanin 1)
1 | 17600 nM (not active) | 3000 nM (not active) | Cc1nc(NCc2cnccn2)ncc1C(=O)N1CCC2(CCOCC2)C1 [PFI-653-N] | 15000 nM (not active) | 15000 nM (not active) | 
2 |  |  | O=C(c1cnc(NCc2cnccn2)nc1)N1CCC2(CCOCC2)C1 [PFI-653] | 24.5 nM (active) | 53.4 nM (active) | 12 nM (active)
